From PubChem BioAssay (NCI)
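A five-concentration, 48-hour dose response in 96-well plates underlies each endpoint, interpolated linearly between surrounding concentrations. TGI: total growth inhibition.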

How the values were obtained:
Assay in all cases: NCI anticancer screen, dose series, 48 h
786-0 renal = tested on: 786-0 renal
A498 renal = tested on: A498 renal
A549 NSCLC = tested on: A549 NSCLC
ACHN renal = tested on: ACHN renal
BT-549 breast = tested on: BT-549 breast
CAKI-1 renal = tested on: CAKI-1 renal
CCRF-CEM leukemia = tested on: CCRF-CEM leukemia
COLO 205 colon = tested on: COLO 205 colon
DU-145 prostate = tested on: DU-145 prostate
EKVX NSCLC = tested on: EKVX NSCLC
HCC-2998 colon = tested on: HCC-2998 colon
HCT-116 colon = tested on: HCT-116 colon
HCT-15 colon = tested on: HCT-15 colon
HOP-62 NSCLC = tested on: HOP-62 NSCLC
HOP-92 NSCLC = tested on: HOP-92 NSCLC
HS 578T breast = tested on: HS 578T breast
IGROV1 ovarian = tested on: IGROV1 ovarian
K-562 leukemia = tested on: K-562 leukemia
KM12 colon = tested on: KM12 colon
M14 melanoma = tested on: M14 melanoma
MALME-3M melanoma = tested on: MALME-3M melanoma
MCF7 breast = tested on: MCF7 breast
MDA-MB-231 breast = tested on: MDA-MB-231 breast
MDA-MB-435 = tested on: MDA-MB-435
MDA-N = tested on: MDA-N
MOLT-4 leukemia = tested on: MOLT-4 leukemia
NCI-H226 lung = tested on: NCI-H226 lung
NCI-H23 lung = tested on: NCI-H23 lung
NCI-H460 lung = tested on: NCI-H460 lung
NCI-H522 lung = tested on: NCI-H522 lung
NCI/ADR-RES ovarian = tested on: NCI/ADR-RES ovarian
OVCAR-3 ovarian = tested on: OVCAR-3 ovarian
OVCAR-4 ovarian = tested on: OVCAR-4 ovarian
OVCAR-5 ovarian = tested on: OVCAR-5 ovarian
PC-3 prostate = tested on: PC-3 prostate
RPMI-8226 leukemia = tested on: RPMI-8226 leukemia
RXF 393 renal = tested on: RXF 393 renal
SF-268 CNS = tested on: SF-268 CNS
SF-295 CNS = tested on: SF-295 CNS
SF-539 CNS = tested on: SF-539 CNS
SK-MEL-2 melanoma = tested on: SK-MEL-2 melanoma
SK-MEL-28 melanoma = tested on: SK-MEL-28 melanoma
SK-MEL-5 melanoma = tested on: SK-MEL-5 melanoma
SK-OV-3 ovarian = tested on: SK-OV-3 ovarian
SN12C renal = tested on: SN12C renal
SNB-19 CNS = tested on: SNB-19 CNS
SNB-75 CNS = tested on: SNB-75 CNS
SR leukemia = tested on: SR leukemia
SW-620 colon = tested on: SW-620 colon
T-47D breast = tested on: T-47D breast
TK-10 renal = tested on: TK-10 renal
U251 CNS = tested on: U251 CNS
UACC-257 melanoma = tested on: UACC-257 melanoma
UACC-62 melanoma = tested on: UACC-62 melanoma
UO-31 renal = tested on: UO-31 renal
HL-60(TB) leukemia = tested on: HL-60(TB) leukemia
HT29 colon = tested on: HT29 colon
LOX IMVI melanoma = tested on: LOX IMVI melanoma
OVCAR-8 ovarian = tested on: OVCAR-8 ovarian

Measured: TGI

O=c1c2cc(Cl)cc(Cl)c2oc2nc3n(c(=O)c12)CCCS3
> 100 µM: 786-0 renal | A498 renal | A549 NSCLC | ACHN renal | BT-549 breast | CAKI-1 renal | CCRF-CEM leukemia | COLO 205 colon | DU-145 prostate | EKVX NSCLC | HCC-2998 colon | HCT-116 colon | HCT-15 colon | HOP-62 NSCLC | HOP-92 NSCLC | HS 578T breast | IGROV1 ovarian | K-562 leukemia | KM12 colon | M14 melanoma | MALME-3M melanoma | MCF7 breast | MDA-MB-231 breast | MDA-MB-435 | MDA-N | MOLT-4 leukemia | NCI-H226 lung | NCI-H23 lung | NCI-H460 lung | NCI/ADR-RES ovarian | OVCAR-3 ovarian | OVCAR-4 ovarian | OVCAR-5 ovarian | PC-3 prostate | RPMI-8226 leukemia | RXF 393 renal | SF-268 CNS | SF-295 CNS | SF-539 CNS | SK-MEL-2 melanoma | SK-MEL-28 melanoma | SK-MEL-5 melanoma | SK-OV-3 ovarian | SN12C renal | SNB-19 CNS | SNB-75 CNS | SR leukemia | SW-620 colon | T-47D breast | TK-10 renal | U251 CNS | UACC-257 melanoma | UACC-62 melanoma
81.6 µM: NCI-H522 lung
40.4 µM: UO-31 renal

O=C(c1ccc(Cl)cc1)N(C(=S)OCc1ccccn1)c1ccccc1
84.4 µM: EKVX NSCLC
> 100 µM: 786-0 renal | A498 renal | ACHN renal | BT-549 breast | CAKI-1 renal | CCRF-CEM leukemia | COLO 205 colon | DU-145 prostate | HCT-116 colon | HCT-15 colon | HL-60(TB) leukemia | HS 578T breast | HT29 colon | IGROV1 ovarian | K-562 leukemia | KM12 colon | LOX IMVI melanoma | M14 melanoma | MALME-3M melanoma | MCF7 breast | MDA-MB-231 breast | MDA-MB-435 | MDA-N | MOLT-4 leukemia | NCI-H226 lung | NCI-H23 lung | NCI/ADR-RES ovarian | OVCAR-3 ovarian | OVCAR-5 ovarian | OVCAR-8 ovarian | PC-3 prostate | RPMI-8226 leukemia | SF-268 CNS | SF-295 CNS | SF-539 CNS | SK-MEL-2 melanoma | SK-MEL-28 melanoma | SK-MEL-5 melanoma | SK-OV-3 ovarian | SN12C renal | SNB-19 CNS | SR leukemia | SW-620 colon | TK-10 renal | U251 CNS | UACC-257 melanoma | UACC-62 melanoma | UO-31 renal
75.7 µM: HOP-62 NSCLC
93.5 µM: T-47D breast
56.6 µM: RXF 393 renal
